For 34 compounds, IC50 and Papp results are on record in ChEMBL document CHEMBL1148540, “Tetrahydrobenzothiophene inhibitors of hepatitis C virus NS5B polymerase” (Bioorg Med Chem Lett, 2006).

Data set [1] deals with T1, RNA-directed RNA polymerase (Hepacivirus hominis, UniProt O39930). The data set is described as follows: Inhibitory activity against delta-21 C-terminally truncated HCV 1b (BB7 isolate) RNA dependent RNA polymerase. The arrangement: species or system Hepatitis C virus subtype 1b.
The nature of data set [2]: Permeability across Caco-2 cell membrane. The class given is ADME, cell-based. The note with it: human, read-out: permeability.
Data set [3] deals with T1, RNA-directed RNA polymerase. The data set is described as follows: Inhibitory activity against HCV 4a NS5B full length RNA dependent RNA polymerase. The arrangement: species or system Hepatitis C virus subtype 4a.

The structures appear in SMILES notation.

T1 sequence (O39930 whole entry, the tested form may be a part): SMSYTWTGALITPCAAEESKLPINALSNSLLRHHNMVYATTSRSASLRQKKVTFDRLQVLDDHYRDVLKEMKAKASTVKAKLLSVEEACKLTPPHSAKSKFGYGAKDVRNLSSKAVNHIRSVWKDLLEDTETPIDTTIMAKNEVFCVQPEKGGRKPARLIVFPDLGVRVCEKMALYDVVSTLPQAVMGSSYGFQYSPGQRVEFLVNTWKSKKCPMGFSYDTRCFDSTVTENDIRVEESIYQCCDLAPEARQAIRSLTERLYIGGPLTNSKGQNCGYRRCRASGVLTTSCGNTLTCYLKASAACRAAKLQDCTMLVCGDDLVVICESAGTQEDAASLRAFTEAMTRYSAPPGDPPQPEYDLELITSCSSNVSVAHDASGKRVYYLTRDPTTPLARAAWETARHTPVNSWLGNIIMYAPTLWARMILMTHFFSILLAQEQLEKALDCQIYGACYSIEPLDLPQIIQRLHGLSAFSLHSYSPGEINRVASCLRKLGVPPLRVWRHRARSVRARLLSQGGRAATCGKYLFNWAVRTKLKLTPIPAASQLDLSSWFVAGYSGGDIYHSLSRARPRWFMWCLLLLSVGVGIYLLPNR

Broadly, the IC50 is the point on the concentration scale where inhibition reaches its midpoint. The low end stands for greater potency in that assay, the high end for weaker potency in that assay. On to `CCOC(=O)c1c(NC(=O)NS(=O)(=O)c2ccccc2C(F)(F)F)sc2c1CCC(C)(C)C2`, for which the IC50 amounted to 200 nM in data set [1] and 50 nM in data set [3]. For the same compound, the Papp in data set [2] is over 3 ×10⁻⁶ cm/s. As for `CCOC(=O)c1c(NC(=O)NS(=O)(=O)c2ccccc2OC(F)(F)F)sc2c1CCC(C)(C)C2`, the concentration for half-maximal inhibition (IC50) in data set [1] was 400 nM; in data set [3], 150 nM. Besides, the Papp in data set [2] is over 3 ×10⁻⁶ cm/s. In the case of `CCOC(=O)c1c(NC(=O)NS(=O)(=O)N2CCOCC2)sc2c1CCC(C)(C)C2`, the IC50 stood at 2500 nM in data set [1] and 300 nM in data set [3]. `CCOC(=O)c1c(NC(=O)NS(=O)(=O)c2ccc(C)cc2)sc2c1C(C)CCC2` (centres undefined): in data set [3], 2000 nM corresponded to half-maximal inhibition (IC50).

Take `CCOC(=O)c1c(NC(=O)NS(=O)(=O)N2CCCCC2)sc2c1CCC(C)(C)C2`: the half-maximal inhibitory concentration (IC50) in data set [1] amounted to 1000 nM; in data set [3], 200 nM. On to `CCOC(=O)c1c(NC(=O)NS(=O)(=O)c2ccnn2C)sc2c1CCC(C)(C)C2`, for which the IC50 in data set [1] was found to be 260 nM; in data set [3], 50 nM. The Papp in data set [2] was over 3 ×10⁻⁶ cm/s. Regarding `CCOC(=O)c1c(NC(=O)NS(=O)(=O)N2CCN(C)CC2)sc2c1CCC(C)(C)C2`, the IC50 in data set [1] turned out to be 2000 nM; in data set [3], 400 nM.

Take `CCOC(=O)c1c(NC(=O)NS(=O)(=O)N2CCCCCC2)sc2c1CCC(C)(C)C2`: the IC50 in data set [1] is 1100 nM; in data set [3], 500 nM. For `CCOC(=O)c1c(NC(=O)NS(=O)(=O)c2ccccc2)sc2c1CCC(C)(C)C2`, the results for the half-inhibitory concentration (IC50) in data set [1] and in data set [3] were 200 nM and 90 nM, respectively. Moreover, in data set [2], the Papp was over 3 ×10⁻⁶ cm/s. Consider `CCOC(=O)c1c(NC(=O)NS(=O)(=O)c2ccc(C)cc2)sc2c1CC(C)CC2` (centres undefined), for which the IC50 in data set [3] is 500 nM. On to `CCOC(=O)c1c(NC(=O)NS(=O)(=O)c2nccn2C)sc2c1CCC(C)(C)C2`, for which the 50% inhibitory concentration (IC50) in data set [1] came out at 150 nM; in data set [3], 80 nM. Moreover, the Papp in data set [2] is over 3 ×10⁻⁶ cm/s. Turning to `CCOC(=O)c1c(NC(=O)NS(=O)(=O)c2ccc(C)cc2)sc2c1CCCC2`, in data set [3], the half-maximal inhibitory concentration (IC50) was 1000 nM.

Regarding `CCOC(=O)c1c(NC(=O)NS(=O)(=O)N2CCCC2)sc2c1CCC(C)(C)C2`, the results for the 50% inhibitory concentration (IC50) in data set [1] and in data set [3] were 400 nM and 200 nM, respectively. As for `CCOC(=O)c1c(NC(=O)c2nccnc2C(=O)O)sc2c1CCCC2`, half-maximal inhibition in data set [3] (IC50) required 4000 nM. The same measure, in the same setting: as for `CCOC(=O)c1c(NC(=O)NS(=O)(=O)c2cccc(OC)c2)sc2c1CCCC2`, the figure is 1200 nM; as for `CCOC(=O)c1c(NC(=O)NS(=O)(=O)c2ccc([N+](=O)[O-])cc2)sc2c1CCCC2`, 2800 nM; as for `CCOC(=O)c1c(NC(=O)NS(C)(=O)=O)sc2c1CCCC2`, 3800 nM.

Compound `CCOC(=O)c1c(NC(=O)NS(=O)(=O)c2cccc(C)c2)sc2c1CCCC2` registered an IC50 in data set [3] of 900 nM. As to `CCOC(=O)c1c(NC(=O)NS(=O)(=O)c2ccc(C)cn2)sc2c1CCC(C)(C)C2`, the half-maximal inhibitory concentration (IC50) in data set [1] came out at 200 nM; in data set [3], 50 nM. For the same compound, the Papp in data set [2] was over 3 ×10⁻⁶ cm/s. Take `CCOC(=O)c1c(NC(=O)NS(=O)(=O)c2ccccc2)sc2c1CCCC2`: in data set [3], the 50% inhibitory concentration (IC50) came to 700 nM. For `CCOC(=O)c1c(NC(=O)NS(=O)(=O)N2CCc3ccccc3C2)sc2c1CCC(C)(C)C2`, the IC50 came out at 600 nM in data set [1] and 100 nM in data set [3].

Regarding `CCOC(=O)c1c(NC(=O)NS(=O)(=O)c2ccc(F)cc2)sc2c1CCC(C)(C)C2`, the IC50 in data set [1] was 500 nM; in data set [3], 60 nM. For the same compound, the Papp in data set [2] is over 3 ×10⁻⁶ cm/s. Take `CCOC(=O)c1c(NC(=O)NS(=O)(=O)N2CCc3ccccc32)sc2c1CCC(C)(C)C2`: the half-maximal inhibitory concentration (IC50) in data set [1] is 260 nM; in data set [3], 200 nM. For `CCOC(=O)c1c(NC(=O)NS(=O)(=O)c2ccc(F)cc2)sc2c1CCCC2`, inhibition in data set [3] was half-maximal at 1700 nM (IC50). Regarding `CCOC(=O)c1c(NC(=O)NS(=O)(=O)c2ccc(C)cc2)sc2c1CCC(C)(C)C2`, the IC50 in data set [1] was 400 nM; in data set [3] it was 90 nM. In addition, the Papp in data set [2] is over 3 ×10⁻⁶ cm/s.

Turning to `CCOC(=O)c1c(NC(=O)NS(=O)(=O)c2cccc3ccccc23)sc2c1CCCC2`, half-maximal inhibition in data set [3] (IC50) required 700 nM. On to `CCOC(=O)c1c(NC(=O)NS(=O)(=O)c2ccccc2C)sc2c1CCCC2`, for which the IC50 in data set [3] stood at 900 nM. On the same count and under the same terms, as for `CCCCS(=O)(=O)NC(=O)Nc1sc2c(c1C(=O)OCC)CCCC2`, the figure is 4900 nM; as for `CCOC(=O)c1c(NC(=O)NS(=O)(=O)c2ccc(C)cc2)sc2c1CCC(C)C2` (centres undefined), 200 nM. On to `CCOC(=O)c1c(NC(=O)NS(=O)(=O)c2ncccn2)sc2c1CCC(C)(C)C2`, for which the half-inhibitory concentration (IC50) is 300 nM in data set [1] and 50 nM in data set [3]. Also, in data set [2], the Papp was over 3 ×10⁻⁶ cm/s. The like results for `CCOC(=O)c1c(NC(=O)NS(=O)(=O)c2ccc(C#N)cc2)sc2c1CCC(C)(C)C2` were, in that order, 400 nM, 90 nM and over 3 ×10⁻⁶ cm/s. Compound `CCOC(=O)c1c(NC(=O)NS(=O)(=O)c2ccc(Cl)cc2)sc2c1CCCC2` registered an IC50 in data set [3] of 1000 nM. Consider `CCOC(=O)c1c(NC(=O)NS(=O)(=O)c2ccccn2)sc2c1CCC(C)(C)C2`, for which the values for the IC50 in data set [1] and in data set [3] were 150 nM and 40 nM, respectively. Further, in data set [2], the Papp was over 3 ×10⁻⁶ cm/s. On to `CCOC(=O)c1c(NC(=O)NS(=O)(=O)N2CCN(C(C)=O)CC2)sc2c1CCC(C)(C)C2`, for which the IC50 in data set [1] is 600 nM; in data set [3] it was 300 nM.
